Experiment: xn = mol fraction of the nth substance listed
Conditions: 100 kPa

CCC(=O)[O-].C[n+]1ccn(CCO)c1 + O
viscosity [mPa·s]
Conditions | 288.15 K | 293.15 K | 298.15 K | 303.15 K | 308.15 K | 313.15 K | 318.15 K | 323.15 K | 328.15 K | 333.15 K
x1 = 0.7595 | 173 | 126 | – | 70.4 | 57.5 | 45.1 | 36.6 | 30.3 | 25.1 | 21.1
x1 = 0.8082 | 194 | 145 | 108.2 | 80.5 | 65.2 | 48.5 | 38.9 | – | – | 22.2
x1 = 0.842 | 217 | 157 | – | 88.5 | 68.6 | 50.9 | – | 33.2 | 28.2 | 22.7
x1 = 0.8991 | 243 | 178 | 132 | 101.3 | – | 54 | 42.9 | – | 30.2 | –
x1 = 0.9102 | 248 | 184 | 136 | 103.7 | 78.5 | 54.9 | 43.6 | 35.1 | – | 23.9

CC(=O)[O-].Cn1cc[n+](CCO)c1 + O
viscosity [mPa·s]
Conditions | 288.15 K | 293.15 K | 298.15 K | 303.15 K | 308.15 K | 313.15 K | 318.15 K | 323.15 K | 328.15 K | 333.15 K
x1 = 0.8317 | 73.1 | 54.2 | – | – | – | 20.52 | 16.8 | 13.96 | 11.73 | 9.95
x1 = 0.8632 | 95.7 | 71.8 | 53.8 | 41.9 | 32.2 | – | 20.74 | 17.07 | 14.25 | 12.06
x1 = 0.8712 | 102.6 | 74.7 | – | – | 33.3 | – | 21.56 | 17.7 | – | 12.4
x1 = 0.8818 | 112.8 | 83.4 | 62 | 47.1 | – | – | 23.58 | – | 16.02 | –
x1 = 0.9003 | 127.4 | – | 69.5 | 52.7 | 40.8 | 32.2 | 25.9 | 21.33 | 17.64 | –

— a compilation of properties of binary mixtures (doi:10.1016/j.jct.2022.106909)
